Each compound was assayed against T1, F508del (Homo sapiens, UniProt P13569, DEL508-508) (assay: Protocol 2: FRET membrane potential optical assay (VIPR), identification of correction compounds). Settings: F508del CFTR modulator activity; compounds of Table 1.
T1 construct: expressed in transfected cells
Assay type: cell-based
Method in brief: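 Correction of the F508del trafficking defect is scored as forskolin (10 μM)/genistein (20 μM)-stimulated Cl^− efflux in NIH3T3 mouse fibroblasts after a 16 hr, 37° C. compound exposure. Depolarization was followed optically using voltage-sensing FRET dyes.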

T1 sequence (P13569 with tags, fused parts or gaps DEL508-508): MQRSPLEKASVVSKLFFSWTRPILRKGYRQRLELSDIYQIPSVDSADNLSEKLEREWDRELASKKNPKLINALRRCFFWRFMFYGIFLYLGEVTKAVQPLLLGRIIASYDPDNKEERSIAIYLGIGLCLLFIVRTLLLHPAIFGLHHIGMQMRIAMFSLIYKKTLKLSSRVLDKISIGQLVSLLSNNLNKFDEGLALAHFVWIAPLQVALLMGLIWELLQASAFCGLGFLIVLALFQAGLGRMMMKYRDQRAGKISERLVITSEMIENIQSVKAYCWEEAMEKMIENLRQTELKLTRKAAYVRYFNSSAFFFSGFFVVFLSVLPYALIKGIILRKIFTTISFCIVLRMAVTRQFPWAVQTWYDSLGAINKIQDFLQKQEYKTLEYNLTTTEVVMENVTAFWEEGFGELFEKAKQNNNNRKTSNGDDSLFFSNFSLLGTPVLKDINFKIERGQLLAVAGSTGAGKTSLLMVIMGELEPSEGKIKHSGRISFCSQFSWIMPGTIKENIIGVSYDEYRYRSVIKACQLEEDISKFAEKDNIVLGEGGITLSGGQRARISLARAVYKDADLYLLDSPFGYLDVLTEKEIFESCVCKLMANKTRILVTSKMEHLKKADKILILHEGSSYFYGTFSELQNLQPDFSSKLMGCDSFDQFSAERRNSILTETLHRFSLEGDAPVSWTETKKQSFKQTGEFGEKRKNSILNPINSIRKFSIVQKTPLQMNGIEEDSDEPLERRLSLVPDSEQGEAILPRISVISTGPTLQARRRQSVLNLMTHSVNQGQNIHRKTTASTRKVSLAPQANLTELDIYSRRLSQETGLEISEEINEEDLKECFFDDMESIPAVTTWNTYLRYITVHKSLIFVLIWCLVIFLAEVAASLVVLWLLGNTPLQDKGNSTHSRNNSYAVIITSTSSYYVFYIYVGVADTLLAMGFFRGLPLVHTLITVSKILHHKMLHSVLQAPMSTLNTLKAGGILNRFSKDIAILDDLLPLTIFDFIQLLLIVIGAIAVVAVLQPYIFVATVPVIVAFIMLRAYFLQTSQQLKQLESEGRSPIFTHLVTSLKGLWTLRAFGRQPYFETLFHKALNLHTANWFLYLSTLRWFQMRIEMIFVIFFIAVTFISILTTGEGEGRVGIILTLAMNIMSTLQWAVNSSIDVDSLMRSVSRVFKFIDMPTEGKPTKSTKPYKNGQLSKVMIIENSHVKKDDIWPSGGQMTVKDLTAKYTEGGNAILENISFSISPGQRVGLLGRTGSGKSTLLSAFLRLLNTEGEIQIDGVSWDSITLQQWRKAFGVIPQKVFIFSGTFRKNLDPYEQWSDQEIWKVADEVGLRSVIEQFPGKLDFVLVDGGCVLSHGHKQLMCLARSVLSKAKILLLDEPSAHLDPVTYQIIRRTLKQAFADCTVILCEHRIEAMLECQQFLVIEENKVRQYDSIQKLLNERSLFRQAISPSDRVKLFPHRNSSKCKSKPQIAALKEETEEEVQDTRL

Row | SMILES | EC30
1 | [2H]C([2H])([2H])C([2H])(COc1cc(F)cc(-c2ccc(C(=O)NS(=O)(=O)c3cccc(N)n3)c(N3C[C@@H](C)CC3(C)C)n2)c1)C([2H])([2H])[2H] [Compound 2708, N-[(6-amino-2-pyridyl)sulfonyl]-6-[3-fluoro-5-[2,3,3,3-tetradeuterio-2-(trideuteriomethyl)propoxy]phenyl]-2-[(4S)-2,2,4-trimethylpyrrolidin-1-yl]pyridine-3-carboxamide] | +++ (“+++” means <3 uM)

Same assay, conditions: F508del CFTR modulator activity; compounds of Table 1; read-out: EC30

Row | SMILES | EC30
2 | CCOc1cc(C)cc(-c2ccc(C(=O)NS(=O)(=O)c3cc[nH]n3)c(Oc3c(C)cc(C)cc3C)n2)n1 [Compound 2301, 6-(6-ethoxy-4-methyl-2-pyridyl)-N-(1H-pyrazol-3-ylsulfonyl)-2-(2,4,6-trimethylphenoxy)pyridine-3-carboxamide] | < 3000 nM
3 | Cc1cn(-c2ccc(C(=O)NS(=O)(=O)c3cccnc3N)c(N3C[C@@H](C)CC3(C)C)n2)nc1OCC(C)(C)C [Compound 2694] | < 3000 nM
4 | CC1CN(c2ncccc2C(=O)NS(=O)(=O)c2cccc(Nc3cccc(OC(C)C)c3)n2)C(C)(C)C1 (stereo not drawn) [Compound 2353, N—[[6-(3-isopropoxyanilino)-2-pyridyl]sulfonyl]-2-(2,2,4-trimethylpyrrolidin-1-yl)pyridine-3-carboxamide] | < 3000 nM
5 | CC1CN(c2ncccc2C(=O)NS(=O)(=O)c2cccc(Nc3ccc(-c4ccccc4)cc3)n2)C(C)(C)C1 (stereo not drawn) [Compound 2023, N—[[6-(4-phenylanilino)-2-pyridyl]sulfonyl]-2-(2,2,4-trimethylpyrrolidin-1-yl)pyridine-3-carboxamide] | < 3000 nM
6 | C#CCCC(=O)Nc1cccc(S(=O)(=O)NC(=O)c2ccc(-c3ccc(Cl)c(OCCC)c3)nc2N2[C@H](C)CC[C@@H]2C)n1 [Compound 2540, 6-(4-chloro-3-propoxy-phenyl)-2-[(2R,5S)-2,5-dimethylpyrrolidin-1-yl]-N-[[6-(pent-4-ynoylamino)-2-pyridyl]sulfonyl]pyridine-3-carboxamide] | < 3000 nM
7 | CC1CN(c2ncccc2C(=O)NS(=O)(=O)c2cccc(NCC3CCCO3)n2)C(C)(C)C1 (stereo not drawn) [Compound 2131, N—[[6-(tetrahydrofuran-2-ylmethylamino)-2-pyridyl]sulfonyl]-2-(2,2,4-trimethylpyrrolidin-1-yl)pyridine-3-carboxamide] | > 10000 nM
8 | CC1CN(c2ncccc2C(=O)NS(=O)(=O)c2cccc(Oc3cc(F)ccc3Cl)n2)C(C)(C)C1 (stereo not drawn) [Compound 2591, N—[[6-(2-chloro-5-fluoro-phenoxy)-2-pyridyl]sulfonyl]-2-(2,2,4-trimethylpyrrolidin-1-yl)pyridine-3-carboxamide] | < 3000 nM
9 | CC(C)OC(=O)N1CCC=C(c2ccc(C(=O)NS(=O)(=O)c3cccc(N)n3)c(N3C[C@@H](C)CC3(C)C)n2)C1 [Compound 2622, isopropyl 5-[5-[(6-amino-2-pyridyl)sulfonylcarbamoyl]-6-[(4S)-2,2,4-trimethylpyrrolidin-1-yl]-2-pyridyl]-3,6-dihydro-2H-pyridine-1-carboxylate] | < 3000 nM
10 | CC(C)CCOc1cccc(S(=O)(=O)NC(=O)c2ccc(C(C)(C)C)nc2N2CC(C)CC2(C)C)n1 (stereo not drawn) [Compound 2716] | < 3000 nM
11 | Cc1ccc(F)c(-c2ccc(C(=O)NS(=O)(=O)c3cccnc3N)c(N3C[C@@H](C)CC3(C)C)n2)c1 [Compound 2205, N-[(2-amino-3-pyridyl)sulfonyl]-6-(2-fluoro-5-methyl-phenyl)-2-[(4S)-2,2,4-trimethylpyrrolidin-1-yl]pyridine-3-carboxamide] | < 3000 nM
12 | COc1ccccc1Oc1cccc(S(=O)(=O)NC(=O)c2cccnc2N2CC(C)CC2(C)C)n1 (stereo not drawn) [Compound 2637, N—[[6-(2-methoxyphenoxy)-2-pyridyl]sulfonyl]-2-(2,2,4-trimethylpyrrolidin-1-yl)pyridine-3-carboxamide] | < 3000 nM
13 | Cc1cc(F)cc(-c2ccc(C(=O)NS(=O)(=O)c3cccnc3N)c(N3C[C@@H](C)CC3(C)C)n2)c1 [Compound 2505, N-[(2-amino-3-pyridyl)sulfonyl]-6-(3-fluoro-5-methyl-phenyl)-2-[(4S)-2,2,4-trimethylpyrrolidin-1-yl]pyridine-3-carboxamide] | < 3000 nM

Same assay, conditions: Table 3; compounds of Table 1 as modulators of CFTR activity; protocol not stated

Row | SMILES | EC30
14 | Cc1cccc(C)c1Cn1nc(-c2ccc(OC(F)(F)F)cc2)cc1C(=O)NS(=O)(=O)c1ccccc1 [Compound 159, N-(benzenesulfonyl)-2-[(2,6-dimethylphenyl)methyl]-5-[4-(trifluoromethoxy)phenyl]pyrazole-3-carboxamide] | +++ (“+++” means <3 uM)
15 | Cc1c(Cn2nc(C(C)(C)C)cc2C(=O)NS(=O)(=O)c2cccc3[nH]ccc23)cccc1C(F)(F)F [Compound 60, 5-tert-butyl-N-(1H-indol-4-ylsulfonyl)-2-[[2-methyl-3-(trifluoromethyl)phenyl]methyl]pyrazole-3-carboxamide] | +++ (“+++” means <3 uM)
16 | Cc1cc(C)c(CN2CCc3ccccc3CC2C(=O)NS(=O)(=O)c2cc[nH]n2)c(C)c1 (stereo not drawn) [Compound 628, N-(1H-pyrazol-3-ylsulfonyl)-3-[(2,4,6-trimethylphenyl)methyl]-1,2,4,5-tetrahydro-3-benzazepine-4-carboxamide] | +++ (“+++” means <3 uM)
17 | CC(C)COc1cc(F)cc(-c2ccc(C(=O)NS(=O)(=O)c3cccc(N)n3)c(OC3CCC(C)C3)n2)c1 (stereo not drawn) [Compound 452, N-[(6-amino-2-pyridyl)sulfonyl]-6-(3-fluoro-5-isobutoxy-phenyl)-2-(3-methylcyclopentoxy)pyridine-3-carboxamide] | +++ (“+++” means <3 uM)
18 | Cc1ccc(Oc2nc(-c3cnn(CC(C)C)c3)ccc2C(=O)NS(=O)(=O)c2cccc(N)n2)c(C)c1 [Compound 381, N-[(6-amino-2-pyridyl)sulfonyl]-2-(2,4-dimethylphenoxy)-6-(1-isobutylpyrazol-4-yl)pyridine-3-carboxamide] | ++ (“++” means between 3 uM and 10 uM)
19 | COc1cccc(-c2ccc(C(=O)NS(=O)(=O)c3cccc(N)n3)c(Oc3c(C)cc(C)cc3C)n2)c1F [Compound 661, N-[(6-amino-2-pyridyl)sulfonyl]-6-(2-fluoro-3-methoxy-phenyl)-2-(2,4,6-trimethylphenoxy)pyridine-3-carboxamide] | +++ (“+++” means <3 uM)
20 | Cc1cc(C)c(CN2Cc3ccccc3C2(C)C(=O)NS(=O)(=O)c2ncccc2O)c(C)c1 (stereo not drawn) [Compound 377, N-[(3-hydroxy-2-pyridyl)sulfonyl]-1-methyl-2-[(2,4,6-trimethylphenyl)methyl]isoindoline-1-carboxamide] | +++ (“+++” means <3 uM)
21 | COc1ccc2c(c1)cc(C(=O)NS(=O)(=O)c1ccccc1)n2Cc1c(C)cc(C)cc1C [Compound 241, N-(benzenesulfonyl)-5-methoxy-1-[(2,4,6-trimethylphenyl)methyl]indole-2-carboxamide] | +++ (“+++” means <3 uM)
22 | Cc1ccccc1Oc1nc(-c2cc(F)cc(OCC(C)C)c2)ccc1C(=O)NS(=O)(=O)c1cccc(N)n1 [Compound 778, N-[(6-amino-2-pyridyl)sulfonyl]-6-(3-fluoro-5-isobutoxy-phenyl)-2-(2-methylphenoxy)pyridine-3-carboxamide] | +++ (“+++” means <3 uM)
23 | Cc1cc(C#N)cc(C)c1Oc1nc(C(C)(C)C)ccc1C(=O)NS(=O)(=O)c1cccc(N)c1 [Compound 111, N-(3-aminophenyl)sulfonyl-6-tert-butyl-2-(4-cyano-2,6-dimethyl-phenoxy)pyridine-3-carboxamide] | +++ (“+++” means <3 uM)
24 | Cc1cc(C)c(CN2Cc3cccc(O)c3C2(C)C(=O)NS(=O)(=O)c2cccc(N)n2)c(C)c1 (stereo not drawn) [Compound 394, N-[(6-amino-2-pyridyl)sulfonyl]-7-hydroxy-1-methyl-2-[(2,4,6-trimethylphenyl)methyl]isoindoline-1-carboxamide] | +++ (“+++” means <3 uM)
25 | COc1ncccc1S(=O)(=O)NC(=O)c1ccc(C(C)(C)C)nc1Oc1c(C)cc(C)cc1C [Compound 191, 6-tert-butyl-N-[(2-methoxy-3-pyridyl)sulfonyl]-2-(2,4,6-trimethylphenoxy)pyridine-3-carboxamide] | +++ (“+++” means <3 uM)
26 | CC(C)Oc1ccc(-c2ccc(C(=O)NS(=O)(=O)c3ccc[nH]c3=O)c(N3[C@H](C)CC[C@@H]3C)n2)cn1 [Compound 770, 2-[(2S,5R)-2,5-dimethylpyrrolidin-1-yl]-6-(6-isopropoxy-3-pyridyl)-N-[(2-oxo-1H-pyridin-3-yl)sulfonyl]pyridine-3-carboxamide] | ++ (“++” means between 3 uM and 10 uM)
27 | CC(C)C(C)Oc1cccc(-c2ccc(C(=O)NS(=O)(=O)c3cccc(N)n3)c(N3CCCC3(C)C)n2)n1 (stereo not drawn) [Compound 717, N-[(6-amino-2-pyridyl)sulfonyl]-6-[6-(1,2-dimethylpropoxy)-2-pyridyl]-2-(2,2-dimethylpyrrolidin-1-yl)pyridine-3-carboxamide] | +++ (“+++” means <3 uM)
28 | CC(C)COc1cc(F)cc(-c2ccc(C(=O)NS(=O)(=O)c3cccc(N)n3)c(N3CCC(C(C)(C)C)C3)n2)c1 (stereo not drawn) [Compound 611, N-[(6-amino-2-pyridyl)sulfonyl]-2-(3-tert-butylpyrrolidin-1-yl)-6-(3-fluoro-5-isobutoxy-phenyl)pyridine-3-carboxamide] | +++ (“+++” means <3 uM)
29 | Cc1cccc(C)c1Oc1nc(C(C)(C)C)ccc1C(=O)NS(=O)(=O)c1cccc(N)c1 [Compound 286, N-(3-aminophenyl)sulfonyl-6-tert-butyl-2-(2,6-dimethylphenoxy)pyridine-3-carboxamide] | +++ (“+++” means <3 uM)
30 | Cc1cc(C)c(Oc2nc(-n3nc(C(F)(F)F)cc3C)ccc2C(=O)NS(=O)(=O)c2cccc(N)n2)c(C)c1 [Compound 633, N-[(6-amino-2-pyridyl)sulfonyl]-6-[5-methyl-3-(trifluoromethyl)pyrazol-1-yl]-2-(2,4,6-trimethylphenoxy)pyridine-3-carboxamide] | +++ (“+++” means <3 uM)
